Patent US6184422A, “Cyclohexanediol derivatives” (priority 1998, dated 2001)

What was measured:
[1] = test system: epidermal proliferation in minipigs; test: animal or person; details: for minimal effective dose: Sus scrofa, 168 h, read-out: Effective dose (dose that increases the normal LI at least 50%); for minimal effective dose / Calcemic dose: po; for Calcemic dose: minipig, in vivo, 10080 min; for TI (ratio Calc./Eff.): oral, calcemic dose / effective dose
Experimental: Orally administered vitamin D analogs can lead to epidermal proliferation in minipigs. This skin effect is considered as indicative for an antipsoriatic potential of vitamin D analogs. […] The pigs were daily observed as to adverse effects such as behavior, mobility, stool. At day seven bromodeoxyuridine (4 mg/kg) was injected intravenously into the treated pigs and 2 hours later skin biopsies (6 mm diameter) and blood were taken for analysis. The skin biopsies were fixed in formalin, and paraffin sections were prepared using standard procedures. Using standard immuno-histochemical techniques, cells in the S-phase (DNA synthesis phase) were labelled by the binding of a specific monoclonal antibody against the thymidine analogue bromodeoxyuridine. The number of labelled epidermal cells per unit of length along the surface was taken as a measure of epidermal proliferative activity (labelings index LI). Clinical chemistry was performed using Cobas Mira.
*The effective dose is the dose that increases the normal LI at least 50%

[2] = Calcium Liability (Tolerance Test in Mice); details: for MTD: mouse, in vivo, sc; for HTD/VDR: ratio HTDsc mouse (μg/kg) / VDR act ED50 (nanomolar)
Excerpt: 1. Calcium Liability (Tolerance Test in Mice)
This test gives a global picture of calcemic liability. Profound changes in calcium homeostasis strongly affect the weight development of the animals. This parameter was used as a primary test for tolerance. […] Body weight was registered just before and at the end of a 5 day treatment period.

[3] = test system: epidermal thickening (acanthosis) in hairless mice; test: The Mouse Model: epidermal thickening (acanthosis) in hairless mice; details: for ED50: Mus musculus, po, read-out: ED50: dose causing half-maximal epidermal thickening; for ratio (TI) HTD/ED50: HTDpo/ED50
[4] = as above; details: mouse, in vivo, po
human VDR = target: T1, human VDR (Homo sapiens, UniProt P11473); test: VDR Activation (transcription activation assay in COS cells, luciferase reporter); format: cell-based; details: COS cells cotransfected with human VDR and VDRE3/luciferase reporter; read-out: VDR act (ED50, nanomolar)
T1 construct: expressed in transfected cells; host or cells: COS cells, expression vector pSG5
T1 sequence (P11473 1-427): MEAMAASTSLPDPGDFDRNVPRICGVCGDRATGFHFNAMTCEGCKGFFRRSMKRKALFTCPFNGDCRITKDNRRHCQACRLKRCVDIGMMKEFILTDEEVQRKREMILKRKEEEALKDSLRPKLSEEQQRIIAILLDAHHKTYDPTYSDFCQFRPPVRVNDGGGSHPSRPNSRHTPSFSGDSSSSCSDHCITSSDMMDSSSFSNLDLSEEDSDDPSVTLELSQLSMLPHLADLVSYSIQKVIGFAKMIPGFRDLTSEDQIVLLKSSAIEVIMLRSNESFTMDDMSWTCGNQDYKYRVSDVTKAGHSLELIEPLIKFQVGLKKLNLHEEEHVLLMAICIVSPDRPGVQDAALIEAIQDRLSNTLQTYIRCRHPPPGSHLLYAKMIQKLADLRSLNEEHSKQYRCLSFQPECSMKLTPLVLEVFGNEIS
Excerpt: In order to measure the activation of the vitamin D receptor (VDR) by vitamin D analogs in cells a transcription activation assay was used. COS cells were cotransfected with the human VDR (expressed in pSG5) and a reporter gene containing three response elements (VDRE3) from the rat osteocalcine gene, the thymidine kinase basal promoter, and the luciferase reporter gene, respectively.

in vivo = details: mouse, po

| SMILES | minimal effective dose [1] [mg/kg] | Calcemic dose [1] [mg/kg] | TI (ratio Calc./Eff.) ([1]; minipigs) | MTD [2] [mg/kg] | HTD/VDR [2] | ED50 [3] [mg/kg] | ratio (TI) HTD/ED50 ([3]; hairless mice, oral) | MTD [4] [mg/kg] | EC50 (human VDR) [nM] | epidermal hyperproliferation (in words) ([1]; minipigs, even at 9 times the dose that induces hypercalcemia) | skin effects at the highest tolerated dose (in words) ([3]; hairless mice, oral, calcitriol animals treated for three days) | MTD (in vivo) [mg/kg] |
| --- | --- | --- | --- | --- | --- | --- | --- | --- | --- | --- | --- | --- |
| CC(C)(C/C=C\C(O)(C(F)(F)F)C(F)(F)F)CCC/C=C/C=C1C[C@@H](O)C[C@H](O)C1 [A, (1R,3R)-5-[(2E,9Z)-12,12,12-trifluoro-11-hydroxy-7,7-dimethyl-11-trifluoromethyl-dodeca-2,9-dienylidene)-cyclohexane-1,3-diol] | 0.1 | 5 | 50 | 2.5 | 14 | 7.5 | 0.13 | 1 | 180 | – | – | – |
| C=C1/C(=C\C=C\CCCC(C)(C)C/C=C\C(O)(C(F)(F)F)C(F)(F)F)C[C@@H](O)C[C@@H]1O [B, (Z)-(1R,3S)-4-methylene-5-[(2E,9Z)-12,12,12-trifluoro-11-hydroxy-7,7-dimethyl-11-trifluoromethyl-dodeca-2,9-dienylidene]-cyclohexane-1,3-diol] | 1 | 2 | 2 | 3 | 60 | 3 | 0.13 | 0.4 | 50 | – | – | – |
| C=C1/C(=C\C=C\CCCC(C)(C)C/C=C/C(O)(C(F)(F)F)C(F)(F)F)C[C@@H](O)C[C@@H]1O [C, (Z)-(1R,3S)-5-((2E,9E)-12,12,12-trifluoro-11-trifluoromethyl-11-hydroxy-7,7-dimethyl-dodec-2,9-dienylidene)-4-methylene-cyclohexane-1,3-diol] | – | – | – | 0.2 | 50 | 0.45 | 0.13 | 0.06 | 4 | – | – | – |
| C=C1/C(=C\C=C2/CCC[C@]3(C)[C@@H]([C@H](C)CCCC(C)(C)O)CC[C@@H]23)C[C@@H](O)C[C@@H]1O [Calcitriol, reference compound] | > 0.0225 | 0.003 | – | – | – | 0.5 | – | – | – | did not induce hyperproliferation | not able to elicit skin effects | – |
| CC(C)(CCC/C=C/C=C1C[C@@H](O)C[C@H](O)C1)CCCC(O)(C(F)(F)F)C(F)(F)F [Compound E, (1R,3R)-5-[(2E)-12,12,12-trifluoro-11-hydroxy-7,7-dimethyl-11-trifluoromethyl-dodec-2-enylidene)-cyclohexane-1,3-diol] | – | – | – | 0.1 | 15 | 0.2 | 0.2 | 0.04 | 6.6 | – | – | – |
| CC(C)(C/C=C/C(O)(C(F)(F)F)C(F)(F)F)CCC/C=C/C=C1C[C@@H](O)C[C@H](O)C1 [D, (1R,3R)-5-[(2E,9E)-12,12,12-trifluoro-11-trifluoromethyl-11-hydroxy-7,7-dimethyl-dodeca-2,9-dienylidene]-cyclohexane-1,3-diol] | – | – | – | 0.1 | 18 | 0.5 | 0.1 | 0.05 | 5.7 | – | – | – |
| C=C1/C(=C\C=C\CCCC(C)(C)CCCC(O)(C(F)(F)F)C(F)(F)F)C[C@@H](O)C[C@@H]1O [F, (Z)-(1R,3S)-5-[(2E)-12,12,12-trifluoro-11-hydroxy-7,7-dimethyl-11-trifluoromethyl-dodec-2-enylidene]-4-methylene-cyclohexane-1,3-diol] | 0.003 | 0.015 | 5 | 0.08 | 20 | 0.2 | 0.4 | 0.08 | 4 | – | – | – |
| C=C1/C(=C\C=C\CCCC(C)(C)CCCC(C)(C)O)C[C@@H](O)C[C@@H]1O [G, (Z)-(1R,3S)-5-[(E)-11-hydroxy-7,7,11-trimethyl-dodec-2-enylidene]-4-methylene-cyclohexane-1,3-diol] | – | – | – | > 5 | 45 | 60 | 0.33 | – | 110 | – | – | 20 |
| CC(C)(O)CCCC(C)(C)CCC/C=C/C=C1C[C@@H](O)C[C@H](O)C1 [H, (2E)-(1R,3R)-5-(11-hydroxy-7,7,11-trimethyl-dodeca-2-enylidene)-cyclohexane-1,3-diol] | – | – | – | > 5 | 18 | – | – | – | 280 | – | – | – |
| CC(C)(CC#CC(O)(C(F)(F)F)C(F)(F)F)CCC/C=C/C=C1C[C@@H](O)C[C@H](O)C1 [I, (E)-(1R,3R)-5-[12,12,12-trifluoro-11-hydroxy-7,7-dimethyl-11-trifluoromethyl-dodec-2-en-9-ynylidene]-cyclohexane-1,3-diol] | 0.036 | 0.2 | 6 | 0.333 | 26 | 0.8 | 0.125 | 0.1 | 13 | – | – | – |
| C=C1/C(=C\C=C\CCCC(C)(C)CC#CC(O)(C(F)(F)F)C(F)(F)F)C[C@@H](O)C[C@@H]1O [J, (Z)-(1R,3S)-4-methylene-5-[(E)-12,12,12-trifluoro-11-hydroxy-7,7-dimethyl-11-trifluoromethyl-dodec-2-en-9-ynylidene]-cyclohexane-1,3-diol] | 0.108 | > 0.324 | > 3 | 0.31 | 65 | 0.7 | 0.1 | 0.07 | 4.8 | – | – | – |
| CC(C)(O)C#CCC(C)(C)CCC/C=C/C=C1C[C@@H](O)C[C@H](O)C1 [K, (10E)-(3R,5R)-12-(3,5-dihydroxy-cyclohexylidene)-6,6-dimethyl-2-methyl-dodec-10-en-3-yn-2-ol] | – | – | – | > 5 | > 23 | – | – | – | 220 | – | – | – |
